Source: ChEMBL document CHEMBL4800729 (2021)

How the values were obtained:
[1] = biological target: Carbonic anhydrase 2 (Homo sapiens) (UniProt P00918); experiment: Inhibition of Carbonic Anhydrase II at compound concentration of 10.0 uM in the Eurofins-Panlabs enzyme assay (Eurofins_assay_112020); parameters: substrate with concentration; conditions: Compound concentration 10.0 uM
[2] = biological target: Monoamine oxidase A (MAO-A) (Homo sapiens, UniProt P21397); experiment: Inhibition of Monoamine Oxidase MAO-A at compound concentration of 10.0 uM in the Eurofins-Panlabs enzyme assay (Eurofins_assay_140010); parameters: substrate with concentration 50 uM Kynuramine, incubation time 60 min, incubation temperature 37 C; conditions: recombinant human MAO-A expressed in insect Hi5 cells, probe Kynuramine (50 uM), compound concentration 10 uM
Monoamine oxidase A (MAO-A), sequence (P21397 whole entry): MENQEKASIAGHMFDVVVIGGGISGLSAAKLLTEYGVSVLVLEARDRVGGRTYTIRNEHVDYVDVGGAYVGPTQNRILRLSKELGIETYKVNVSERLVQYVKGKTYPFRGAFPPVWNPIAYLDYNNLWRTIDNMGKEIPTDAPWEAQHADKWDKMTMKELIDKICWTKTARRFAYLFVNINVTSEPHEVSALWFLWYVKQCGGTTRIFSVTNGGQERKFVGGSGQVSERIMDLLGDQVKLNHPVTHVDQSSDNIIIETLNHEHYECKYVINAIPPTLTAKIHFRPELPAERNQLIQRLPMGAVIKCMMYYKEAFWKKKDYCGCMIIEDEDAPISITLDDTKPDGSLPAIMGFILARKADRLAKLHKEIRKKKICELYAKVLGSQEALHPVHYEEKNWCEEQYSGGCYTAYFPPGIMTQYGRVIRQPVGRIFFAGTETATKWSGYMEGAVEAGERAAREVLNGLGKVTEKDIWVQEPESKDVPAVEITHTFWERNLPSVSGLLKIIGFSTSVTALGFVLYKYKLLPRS

[3] = biological target: Tyrosine-protein kinase ABL1 (Homo sapiens) (UniProt P00519); experiment: Abl(h) Millipore kinase panel; conditions: Compound concentration 1.0 uM
[4] = biological target: Cytoplasmic tyrosine-protein kinase BMX (Homo sapiens) (UniProt P51813); experiment: Bmx(h) Millipore kinase panel; conditions: Compound concentration 1.0 uM
Cytoplasmic tyrosine-protein kinase BMX (Homo sapiens), sequence (P51813 whole entry): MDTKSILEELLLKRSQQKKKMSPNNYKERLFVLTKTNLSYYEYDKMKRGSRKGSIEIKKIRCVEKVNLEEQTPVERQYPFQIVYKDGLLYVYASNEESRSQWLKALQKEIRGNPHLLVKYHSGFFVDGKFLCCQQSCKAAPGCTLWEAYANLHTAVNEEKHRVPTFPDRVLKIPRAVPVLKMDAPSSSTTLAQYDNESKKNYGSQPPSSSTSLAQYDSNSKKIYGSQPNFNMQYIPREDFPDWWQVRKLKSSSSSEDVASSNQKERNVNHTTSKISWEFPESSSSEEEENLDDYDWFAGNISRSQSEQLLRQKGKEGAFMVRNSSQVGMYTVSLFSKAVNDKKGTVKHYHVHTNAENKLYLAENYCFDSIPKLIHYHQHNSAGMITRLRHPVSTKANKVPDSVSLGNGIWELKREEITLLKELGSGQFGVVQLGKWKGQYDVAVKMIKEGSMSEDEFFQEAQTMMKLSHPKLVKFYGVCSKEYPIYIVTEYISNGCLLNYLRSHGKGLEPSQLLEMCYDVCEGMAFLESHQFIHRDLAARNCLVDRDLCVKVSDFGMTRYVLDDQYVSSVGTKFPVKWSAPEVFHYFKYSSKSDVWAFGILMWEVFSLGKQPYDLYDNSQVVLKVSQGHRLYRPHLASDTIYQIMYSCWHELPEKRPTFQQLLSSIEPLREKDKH

[5] = biological target: Tyrosine-protein kinase BTK (Homo sapiens) (UniProt Q06187); experiment: BTK(h) Millipore kinase panel; conditions: Compound concentration 1.0 uM
[6] = biological target: Calcium/calmodulin-dependent protein kinase kinase 2 (Homo sapiens) (UniProt Q96RR4); experiment: CaMKK2(h) Millipore kinase panel; conditions: Compound concentration 1.0 uM
[7] = biological target: Cyclin-dependent kinase-like 3 (Homo sapiens) (UniProt Q8IVW4); experiment: CDKL3(h) Millipore kinase panel; conditions: Compound concentration 1.0 uM
Cyclin-dependent kinase-like 3 (Homo sapiens), sequence (Q8IVW4 whole entry, looked up, canonical isoform): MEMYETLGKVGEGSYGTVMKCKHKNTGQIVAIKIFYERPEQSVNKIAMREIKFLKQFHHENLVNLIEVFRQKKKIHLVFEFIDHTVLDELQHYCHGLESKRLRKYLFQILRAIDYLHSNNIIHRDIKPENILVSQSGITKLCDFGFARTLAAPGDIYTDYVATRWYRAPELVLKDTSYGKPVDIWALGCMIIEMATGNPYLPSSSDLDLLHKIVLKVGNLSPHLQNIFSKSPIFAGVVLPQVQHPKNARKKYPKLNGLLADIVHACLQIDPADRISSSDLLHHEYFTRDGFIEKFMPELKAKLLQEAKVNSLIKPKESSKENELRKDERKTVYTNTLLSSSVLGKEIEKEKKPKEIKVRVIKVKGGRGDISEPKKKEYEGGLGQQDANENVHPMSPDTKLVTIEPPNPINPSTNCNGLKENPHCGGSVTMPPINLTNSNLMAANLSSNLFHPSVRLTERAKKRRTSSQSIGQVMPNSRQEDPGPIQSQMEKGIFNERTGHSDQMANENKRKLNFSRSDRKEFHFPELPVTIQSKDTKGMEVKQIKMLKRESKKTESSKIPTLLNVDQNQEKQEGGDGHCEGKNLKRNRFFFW

[8] = biological target: Casein kinase I isoform alpha (Homo sapiens) (UniProt P48729); experiment: CK1alpha(h) Millipore kinase panel; conditions: Compound concentration 1.0 uM
[9] = biological target: Casein kinase I isoform delta (Homo sapiens) (UniProt P48730); experiment: CK1delta(h) Millipore kinase panel; conditions: Compound concentration 1.0 uM
[10] = biological target: Casein kinase I isoform gamma-2 (Homo sapiens) (UniProt P78368); experiment: CK1gamma2(h) Millipore kinase panel; conditions: Compound concentration 1.0 uM
[11] = biological target: Casein kinase I isoform gamma-1 (Homo sapiens) (UniProt Q9HCP0); experiment: CK1gamma1(h) Millipore kinase panel; conditions: Compound concentration 1.0 uM
[12] = biological target: Casein kinase II subunit alpha' (Homo sapiens) (UniProt P19784); experiment: CK2alpha2(h) Millipore kinase panel; conditions: Compound concentration 1.0 uM
[13] = biological target: Serine/threonine-protein kinase DCLK1 (Homo sapiens) (UniProt O15075); experiment: DCAMKL1(h) Millipore kinase panel; conditions: Compound concentration 1.0 uM
[14] = biological target: Discoidin domain-containing receptor 2 (Homo sapiens) (UniProt Q16832); experiment: DDR2(h) Millipore kinase panel; conditions: Compound concentration 1.0 uM
[15] = biological target: Ephrin type-A receptor 8 (Homo sapiens) (UniProt P29322); experiment: EphA8(h) Millipore kinase panel; conditions: Compound concentration 1.0 uM
Ephrin type-A receptor 8 (Homo sapiens), sequence (P29322 whole entry): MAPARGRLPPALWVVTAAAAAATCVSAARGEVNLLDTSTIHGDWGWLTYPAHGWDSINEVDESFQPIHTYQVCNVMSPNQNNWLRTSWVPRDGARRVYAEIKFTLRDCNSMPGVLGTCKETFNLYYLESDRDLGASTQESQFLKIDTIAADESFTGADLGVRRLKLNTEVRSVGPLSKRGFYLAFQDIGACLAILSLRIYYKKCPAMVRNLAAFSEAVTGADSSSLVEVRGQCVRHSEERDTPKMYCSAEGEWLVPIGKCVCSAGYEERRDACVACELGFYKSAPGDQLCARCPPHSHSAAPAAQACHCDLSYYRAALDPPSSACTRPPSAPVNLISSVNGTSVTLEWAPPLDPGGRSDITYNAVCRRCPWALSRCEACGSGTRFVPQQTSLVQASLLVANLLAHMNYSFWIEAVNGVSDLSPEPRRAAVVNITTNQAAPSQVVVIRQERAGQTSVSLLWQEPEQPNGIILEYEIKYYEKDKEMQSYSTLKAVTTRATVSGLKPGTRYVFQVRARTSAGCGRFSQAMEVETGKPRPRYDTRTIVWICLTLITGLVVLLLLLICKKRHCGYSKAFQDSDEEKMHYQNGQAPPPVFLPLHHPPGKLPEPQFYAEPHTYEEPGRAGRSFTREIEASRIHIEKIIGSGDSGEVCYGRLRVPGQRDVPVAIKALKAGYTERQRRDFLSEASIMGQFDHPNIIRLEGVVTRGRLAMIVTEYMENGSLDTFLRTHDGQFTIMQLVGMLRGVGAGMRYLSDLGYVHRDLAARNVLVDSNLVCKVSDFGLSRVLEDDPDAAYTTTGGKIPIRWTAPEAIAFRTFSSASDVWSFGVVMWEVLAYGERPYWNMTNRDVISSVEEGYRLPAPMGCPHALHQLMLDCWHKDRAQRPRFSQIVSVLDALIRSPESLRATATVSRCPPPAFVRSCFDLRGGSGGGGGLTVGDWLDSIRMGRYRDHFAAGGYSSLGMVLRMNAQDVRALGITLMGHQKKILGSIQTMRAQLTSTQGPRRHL

[16] = biological target: G protein-coupled receptor kinase 5 (Homo sapiens) (UniProt P34947); experiment: GRK5(h) Millipore kinase panel; conditions: Compound concentration 1.0 uM
[17] = biological target: Homeodomain-interacting protein kinase 2 (Homo sapiens) (UniProt Q9H2X6); experiment: HIPK2(h) Millipore kinase panel; conditions: Compound concentration 1.0 uM
[18] = biological target: Tyrosine-protein kinase Lyn (Homo sapiens) (UniProt P07948); experiment: Lyn(h) Millipore kinase panel; conditions: Compound concentration 1.0 uM
[19] = biological target: Mitogen-activated protein kinase kinase kinase kinase 5 (Homo sapiens) (UniProt Q9Y4K4); experiment: MAP4K5(h) Millipore kinase panel; conditions: Compound concentration 1.0 uM
[20] = biological target: Mitogen-activated protein kinase kinase kinase 21 (Homo sapiens) (UniProt Q5TCX8); experiment: MLK4(h) Millipore kinase panel; conditions: Compound concentration 1.0 uM
[21] = biological target: Serine/threonine-protein kinase 26 (Homo sapiens) (UniProt Q9P289); experiment: MST4(h) Millipore kinase panel; conditions: Compound concentration 1.0 uM
[22] = biological target: mTOR/FKBP12A/FKBP12B (Homo sapiens) (UniProt P62942+P68106+P42345); experiment: mTOR FKBP12(h) Millipore kinase panel; format: protein-complex assay; conditions: Compound concentration 1.0 uM
[23] = biological target: Serine/threonine-protein kinase 38 (Homo sapiens) (UniProt Q15208); experiment: NDR1(h) Millipore kinase panel; conditions: Compound concentration 1.0 uM
Serine/threonine-protein kinase 38 (Homo sapiens), sequence (Q15208 2-465 limits assumed): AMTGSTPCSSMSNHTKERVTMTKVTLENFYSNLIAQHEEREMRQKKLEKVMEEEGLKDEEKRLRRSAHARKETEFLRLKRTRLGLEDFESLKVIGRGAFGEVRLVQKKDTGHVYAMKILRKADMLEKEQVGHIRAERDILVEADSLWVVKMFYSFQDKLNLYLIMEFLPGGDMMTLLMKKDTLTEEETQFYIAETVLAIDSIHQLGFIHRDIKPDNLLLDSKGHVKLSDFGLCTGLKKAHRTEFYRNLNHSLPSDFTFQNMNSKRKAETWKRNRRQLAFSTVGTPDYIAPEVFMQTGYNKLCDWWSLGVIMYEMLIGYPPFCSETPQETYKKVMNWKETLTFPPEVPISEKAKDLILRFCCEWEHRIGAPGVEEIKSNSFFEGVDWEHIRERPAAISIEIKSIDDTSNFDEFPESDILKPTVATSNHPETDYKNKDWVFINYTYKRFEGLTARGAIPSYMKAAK

[24] = biological target: [Pyruvate dehydrogenase (acetyl-transferring)] kinase isozyme 4, mitochondrial (Homo sapiens) (UniProt Q16654); experiment: PDHK4(h) Millipore kinase panel; conditions: Compound concentration 1.0 uM
[25] = biological target: Phosphatidylinositol 4-phosphate 3-kinase C2 domain-containing subunit alpha (Homo sapiens) (UniProt O00443); experiment: PI3KC2a(h) Millipore kinase panel; conditions: Compound concentration 1.0 uM
[26] = biological target: Serine/threonine-protein kinase D3 (Homo sapiens) (UniProt O94806); experiment: PKD3(h) Millipore kinase panel; conditions: Compound concentration 1.0 uM
[27] = biological target: Serine/threonine-protein kinase PLK1 (Homo sapiens) (UniProt P53350); experiment: Plk1(h) Millipore kinase panel; conditions: Compound concentration 1.0 uM
[28] = biological target: Serine/threonine-protein kinase PLK4 (Homo sapiens) (UniProt O00444); experiment: Plk4(h) Millipore kinase panel; conditions: Compound concentration 1.0 uM
Serine/threonine-protein kinase PLK4 (Homo sapiens), sequence (O00444 whole entry): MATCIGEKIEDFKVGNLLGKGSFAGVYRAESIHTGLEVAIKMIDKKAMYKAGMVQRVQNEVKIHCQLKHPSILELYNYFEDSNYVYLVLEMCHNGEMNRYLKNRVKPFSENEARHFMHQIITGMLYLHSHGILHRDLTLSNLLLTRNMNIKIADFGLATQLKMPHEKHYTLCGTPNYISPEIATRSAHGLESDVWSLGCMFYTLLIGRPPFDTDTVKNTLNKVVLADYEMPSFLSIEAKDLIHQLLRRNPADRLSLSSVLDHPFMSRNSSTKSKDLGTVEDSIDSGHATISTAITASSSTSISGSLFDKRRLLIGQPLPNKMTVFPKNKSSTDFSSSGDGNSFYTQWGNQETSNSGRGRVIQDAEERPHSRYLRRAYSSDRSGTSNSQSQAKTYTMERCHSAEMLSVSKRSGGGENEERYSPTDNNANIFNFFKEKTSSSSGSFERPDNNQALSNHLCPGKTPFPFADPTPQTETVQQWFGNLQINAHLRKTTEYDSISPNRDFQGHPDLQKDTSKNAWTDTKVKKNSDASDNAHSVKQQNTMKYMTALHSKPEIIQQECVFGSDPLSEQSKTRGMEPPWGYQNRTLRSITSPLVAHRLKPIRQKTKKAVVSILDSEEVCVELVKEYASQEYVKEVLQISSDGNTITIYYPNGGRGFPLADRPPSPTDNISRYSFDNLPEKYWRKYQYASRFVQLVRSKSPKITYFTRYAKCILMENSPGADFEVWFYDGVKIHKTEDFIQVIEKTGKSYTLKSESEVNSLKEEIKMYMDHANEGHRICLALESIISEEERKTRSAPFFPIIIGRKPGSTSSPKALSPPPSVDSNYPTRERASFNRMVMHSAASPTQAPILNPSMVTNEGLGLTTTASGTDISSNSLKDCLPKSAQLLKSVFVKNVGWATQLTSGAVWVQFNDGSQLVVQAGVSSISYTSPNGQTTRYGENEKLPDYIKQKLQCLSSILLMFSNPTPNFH

[29] = biological target: Serine/threonine-protein kinase WNK1 (Homo sapiens) (UniProt Q9H4A3); experiment: WNK1(h) Millipore kinase panel; conditions: Compound concentration 1.0 uM
[30] = biological target: Serine/threonine-protein kinase WNK3 (Homo sapiens) (UniProt Q9BYP7); experiment: WNK3(h) Millipore kinase panel; conditions: Compound concentration 1.0 uM
[31] = biological target: Mitogen-activated protein kinase kinase kinase 20 (Homo sapiens) (UniProt Q9NYL2); experiment: ZAK(h) Millipore kinase panel; conditions: Compound concentration 1.0 uM
[32] = biological target: 5-hydroxytryptamine receptor 2B (Homo sapiens, UniProt P41595); conditions: Compound concentration 10.0 uM
D(1A) dopamine receptor = D(1A) dopamine receptor (Homo sapiens, UniProt P21728); conditions: Compound concentration 10.0 uM
D(1A) dopamine receptor, sequence (P21728 whole entry): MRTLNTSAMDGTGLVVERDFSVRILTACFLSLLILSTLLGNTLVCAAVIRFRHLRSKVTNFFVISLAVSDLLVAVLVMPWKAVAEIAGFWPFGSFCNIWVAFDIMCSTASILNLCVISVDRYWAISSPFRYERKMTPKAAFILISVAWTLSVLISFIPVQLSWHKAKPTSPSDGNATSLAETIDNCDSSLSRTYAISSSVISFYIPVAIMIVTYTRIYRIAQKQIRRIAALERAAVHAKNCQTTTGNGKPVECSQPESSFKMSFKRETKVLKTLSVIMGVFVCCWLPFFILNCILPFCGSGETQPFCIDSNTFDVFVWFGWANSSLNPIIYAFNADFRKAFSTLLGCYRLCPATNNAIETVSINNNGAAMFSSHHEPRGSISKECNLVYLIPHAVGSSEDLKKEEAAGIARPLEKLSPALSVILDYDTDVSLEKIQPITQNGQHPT

[33] = biological target: Kappa-type opioid receptor (Homo sapiens) (UniProt P41145); conditions: Compound concentration 10.0 uM
[34] = biological target: T1, Muscarinic acetylcholine receptor M1 (Homo sapiens) (UniProt P11229); conditions: Compound concentration 10.0 uM
T1 sequence (whole entry): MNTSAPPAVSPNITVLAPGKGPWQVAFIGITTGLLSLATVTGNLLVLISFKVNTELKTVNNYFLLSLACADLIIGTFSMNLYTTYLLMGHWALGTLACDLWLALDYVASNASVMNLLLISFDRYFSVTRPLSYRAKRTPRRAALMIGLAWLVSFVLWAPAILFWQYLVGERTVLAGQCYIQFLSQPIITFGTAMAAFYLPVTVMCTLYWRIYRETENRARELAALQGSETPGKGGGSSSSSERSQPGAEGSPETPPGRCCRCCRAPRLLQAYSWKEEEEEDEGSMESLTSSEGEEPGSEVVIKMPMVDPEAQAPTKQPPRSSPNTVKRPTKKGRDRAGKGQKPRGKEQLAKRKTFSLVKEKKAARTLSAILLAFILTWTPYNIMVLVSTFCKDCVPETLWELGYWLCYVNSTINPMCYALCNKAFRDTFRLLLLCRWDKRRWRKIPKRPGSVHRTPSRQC

[35] = biological target: Histamine H1 receptor (Homo sapiens) (UniProt P35367); conditions: Compound concentration 10.0 uM
[36] = biological target: Type-2 angiotensin II receptor (Homo sapiens) (UniProt P50052); conditions: Compound concentration 10.0 uM
Type-2 angiotensin II receptor (Homo sapiens), sequence (P50052 whole entry): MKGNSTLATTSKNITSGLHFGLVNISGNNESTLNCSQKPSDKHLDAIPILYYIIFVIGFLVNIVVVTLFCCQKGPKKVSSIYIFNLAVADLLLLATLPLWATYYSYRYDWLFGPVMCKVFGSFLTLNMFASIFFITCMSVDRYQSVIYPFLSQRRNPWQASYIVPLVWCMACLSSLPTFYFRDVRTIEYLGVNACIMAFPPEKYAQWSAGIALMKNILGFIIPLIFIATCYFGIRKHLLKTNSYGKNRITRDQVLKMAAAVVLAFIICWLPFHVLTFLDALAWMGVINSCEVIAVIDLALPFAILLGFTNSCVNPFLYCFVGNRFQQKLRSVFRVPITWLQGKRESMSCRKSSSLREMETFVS

[37] = biological target: Insulin receptor (Homo sapiens) (UniProt P06213); conditions: Rattus norvegicus; Compound concentration 10.0 uM
[38] = biological target: Equilibrative nucleoside transporter 1/2/3/4 (Homo sapiens) (UniProt Q99808+Q7RTT9+Q14542+Q9BZD2); conditions: Compound concentration 10.0 uM
[39] = biological target: Phosphatidylinositol 5-phosphate 4-kinase type-2 alpha (Homo sapiens) (UniProt P48426); conditions: Compound concentration 1.0 uM

For `CC[C@@H](Nc1c(C#N)c(-c2ccc(-c3cccc(C)c3F)cc2)nc2cnccc12)C(=O)O` [BAY-091], which inhibition [1] is on record?
The inhibition was -6%.

And the inhibition at 60 min, 10 µM [2]?
Its inhibition at 60 min, 10 µM is 7% (not active).

What about the inhibition [3] of the same compound?
Its inhibition is 12.1%.

And the inhibition [4]?
Its inhibition is 3.69%.

What about the inhibition [5] of the same compound?
Its inhibition is 12.8%.

And the inhibition [6]?
The inhibition was 11.3%.

What about the inhibition [7] of the same compound?
The inhibition was 8.18%.

And the inhibition [8]?
Its inhibition is 3.17%.

And the inhibition [9]?
Its inhibition is 9.07%.

And the inhibition [10]?
The inhibition was 12.4%.

And the inhibition [11]?
Its inhibition is 8.17%.

And the inhibition [12]?
Its inhibition is -4.36%.

And the inhibition [13]?
Its inhibition is 13%.

What about the inhibition [14] of the same compound?
Its inhibition is 16.3%.

And the inhibition [15]?
The inhibition was -6.72%.

What about the inhibition [16] of the same compound?
The inhibition was -3.49%.

What about the inhibition [17] of the same compound?
Its inhibition is 0.19%.

And the inhibition [18]?
Its inhibition is 12.5%.

What about the inhibition [19] of the same compound?
The inhibition was 13.3%.

And the inhibition [20]?
Its inhibition is 9.6%.

And the inhibition [21]?
The inhibition was 5.69%.

What about the inhibition [22] of the same compound?
Its inhibition is 1.38%.

What about the inhibition [23] of the same compound?
Its inhibition is -6%.

What about the inhibition [24] of the same compound?
The inhibition was 9.88%.

What about the inhibition [25] of the same compound?
Its inhibition is 4.18%.

And the inhibition [26]?
Its inhibition is 12.6%.

And the inhibition [27]?
Its inhibition is 4.29%.

And the inhibition [28]?
The inhibition was -8.83%.

And the inhibition [29]?
The inhibition was 14.7%.

And the inhibition [30]?
Its inhibition is -1.89%.

And the inhibition [31]?
The inhibition was -4.94%.

What about the inhibition [32] of the same compound?
The inhibition was 61%.

And the inhibition (D(1A) dopamine receptor)?
Its inhibition is -3.98%.

And the inhibition [33]?
The inhibition was 0.48%.

And the inhibition [34]?
The inhibition was -5.6%.

And the inhibition [35]?
Its inhibition is 27%.

What about the inhibition [36] of the same compound?
Its inhibition is 11%.

And the inhibition [37]?
Its inhibition is -1%.

What about the inhibition [38] of the same compound?
Its inhibition is 42%.

And the inhibition [39]?
Its inhibition is 142%.
